Legend:
[1] = cytotoxicity in mock-infected A549 cells (MTS); type: cell-based; conditions: human
Method: The lung cancer epithelial cell line A549 was obtained from the American Type Culture Collection (ATCC; Rockville, MD, USA) and cultured in MEM medium (Gibco BRL, Gaithersburg, MD, USA) with 10% fetal calf serum (FCS; Gibco BRL), 2 mM L-glutamine (Gibco BRL) and 0.075% sodium bicarbonate (Gibco BRL).
The anti-ZIKV and anti-DENV-2 activity in A549 cells was determined using a tetrazolium-based colorimetric cytopathic effect (CPE) reduction assay. […] A549 cells (1.5×10^4 cells in 100 μL cell culture medium) were seeded in 96-well flat bottom plates (TPP, Trasadingen, Switzerland) and incubated overnight to allow the cells to grow to confluency. Drug dilutions were prepared in culture medium where FCS concentration was decreased to 2% and threefold diluted in the plates (in duplicate). […] Three hours after MTS incubation, virus was inactivated using 0.5% Triton X-100 (Thermo Fisher Scientific, Waltham, MA, USA) and the absorbance was then recorded at 490 nm with a 96-well plate reader and compared with four cell control replicates (cells without virus and drugs) and four virus control wells (cells with virus but without drug). […] Absorbance was recorded using the VersaMax ELISA™ microplate reader (Molecular Devices) and analyzed with the Softmax Pro® software (Molecular Devices, Version 4.0). […]

CYP1A2 = CYP1A2 (Homo sapiens (Human), UniProt P05177); test: CYP inhibition in pooled human liver microsomes; type: in vitro ADME
Method: (§1) CYP inhibition: Co-incubation of compounds with P450 enzyme-selective substrates was performed using pooled human liver microsomes (Cat. No. H0610, Xenotech), to determine their potential to cause drug-drug interactions. The assay was performed in duplicate. The formation of acetaminophen, 7′-hydoxycoumarin, hydrobupropion, N-desethylamodiaquine, 4′-hydroxydiclofenac, 4′-hydroxymephenytoin, 1′-hydroxybufuralol, 6″-hydroxychlorzoxazone were quantified as markers for CYP1A2, CYP2A6, […], CYP2C8, CYP2C9, CYP2C19, […], CYP2E1, respectively. CYP3A4 inhibition was measured using 2 substrates, measuring the formation of […] (3A4-T), and 1′-hydroxymidazolam (3A4-M). The incubation was carried out in 96 deep well plates each well containing: 179 μL of the master solution (0.2 mg/mL microsomes plus CYP substrate (see below for final substrate concentration and incubation time for the different CYP assays)) in 100 mM phosphate buffer and 1 μL of the compound working solution or vehicle. The final concentrations of the compounds in the assay was 30 μM when using a single dose or 0.1, 0.3, 1, 3, 10 and 30 μM for a dose response.
The incubation plate was placed into a water bath and pre-warmed at 37° C. for 5 minutes before the reactions were started by the addition of 20 μL of 10 mM NADPH solution and incubated at 37° C. for the time listed above. […]

CYP2B6 = CYP2B6 (Homo sapiens (Human), UniProt P20813); test: biochemical; type: in vitro ADME
Chain of CYP2B6 (P20813 whole entry): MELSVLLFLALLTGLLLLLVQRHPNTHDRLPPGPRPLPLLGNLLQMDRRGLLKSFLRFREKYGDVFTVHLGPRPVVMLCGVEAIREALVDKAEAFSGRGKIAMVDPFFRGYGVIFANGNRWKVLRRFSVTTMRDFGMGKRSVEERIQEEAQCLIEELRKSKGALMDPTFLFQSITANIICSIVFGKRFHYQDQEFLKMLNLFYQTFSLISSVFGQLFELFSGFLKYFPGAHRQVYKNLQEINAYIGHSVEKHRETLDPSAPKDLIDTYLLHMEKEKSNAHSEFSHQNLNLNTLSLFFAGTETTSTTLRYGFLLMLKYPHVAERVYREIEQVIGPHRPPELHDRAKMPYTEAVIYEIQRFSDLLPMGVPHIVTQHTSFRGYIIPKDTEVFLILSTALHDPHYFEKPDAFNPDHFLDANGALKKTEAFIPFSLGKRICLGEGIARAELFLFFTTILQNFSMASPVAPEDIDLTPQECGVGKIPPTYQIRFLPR
Method: as §1
(§2) The incubation plate was placed into a water bath and pre-warmed at 37° C. for 5 minutes before the reactions were started by the addition of 20 μL of 10 mM NADPH solution and incubated at 37° C. for the time listed above. The reaction was stopped by addition of 1.5 volumes (300 μL) of cold ACN containing 3% formic acid and 200 nM tolbutamide, 200 nM aprozolam and 200 nM labalol. The plate was centrifuged at 3,220 g for 50 minutes and then 200 μL of the supernatant was transferred to the analysis plate for LC/MS/MS analysis. The respective metabolite formation from each probe substrate was compared with that observed for the solvent control incubations.

CYP2D6 = CYP2D6 (Homo sapiens (Human), UniProt P10635); test: biochemical; type: in vitro ADME
Chain of CYP2D6 (P10635 whole entry): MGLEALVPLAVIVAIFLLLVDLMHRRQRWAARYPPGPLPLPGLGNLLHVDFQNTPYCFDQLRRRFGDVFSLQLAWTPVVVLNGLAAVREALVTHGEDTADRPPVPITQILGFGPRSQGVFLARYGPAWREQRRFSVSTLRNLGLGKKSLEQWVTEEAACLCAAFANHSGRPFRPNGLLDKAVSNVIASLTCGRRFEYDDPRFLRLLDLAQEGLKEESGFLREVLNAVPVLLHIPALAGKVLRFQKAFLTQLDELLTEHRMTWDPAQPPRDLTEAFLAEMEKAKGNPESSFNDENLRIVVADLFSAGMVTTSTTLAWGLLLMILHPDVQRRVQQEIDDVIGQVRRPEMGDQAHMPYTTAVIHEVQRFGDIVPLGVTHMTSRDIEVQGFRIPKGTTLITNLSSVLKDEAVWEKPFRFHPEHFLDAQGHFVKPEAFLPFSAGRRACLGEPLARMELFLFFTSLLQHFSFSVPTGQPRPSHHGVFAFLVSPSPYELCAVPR
Method: as §1, §2

CYP2E1 = CYP2E1 (Homo sapiens (Human), UniProt P05181); test: biochemical; type: in vitro ADME
Chain of CYP2E1 (P05181 whole entry): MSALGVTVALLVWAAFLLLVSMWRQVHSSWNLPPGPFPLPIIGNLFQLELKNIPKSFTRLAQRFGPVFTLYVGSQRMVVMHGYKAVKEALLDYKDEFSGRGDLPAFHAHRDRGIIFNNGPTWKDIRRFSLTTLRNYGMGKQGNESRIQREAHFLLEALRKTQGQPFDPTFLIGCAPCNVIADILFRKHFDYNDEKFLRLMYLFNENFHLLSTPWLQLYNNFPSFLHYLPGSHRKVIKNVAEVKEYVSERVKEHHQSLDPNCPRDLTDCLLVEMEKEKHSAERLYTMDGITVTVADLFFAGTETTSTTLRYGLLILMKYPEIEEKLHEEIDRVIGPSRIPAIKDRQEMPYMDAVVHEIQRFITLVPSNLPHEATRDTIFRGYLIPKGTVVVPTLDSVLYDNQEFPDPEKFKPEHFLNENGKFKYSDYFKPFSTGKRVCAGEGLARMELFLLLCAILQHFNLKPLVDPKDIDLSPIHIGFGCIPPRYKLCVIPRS
Method: as §1, §2

Chain of CYP1A2 (P05177 whole entry): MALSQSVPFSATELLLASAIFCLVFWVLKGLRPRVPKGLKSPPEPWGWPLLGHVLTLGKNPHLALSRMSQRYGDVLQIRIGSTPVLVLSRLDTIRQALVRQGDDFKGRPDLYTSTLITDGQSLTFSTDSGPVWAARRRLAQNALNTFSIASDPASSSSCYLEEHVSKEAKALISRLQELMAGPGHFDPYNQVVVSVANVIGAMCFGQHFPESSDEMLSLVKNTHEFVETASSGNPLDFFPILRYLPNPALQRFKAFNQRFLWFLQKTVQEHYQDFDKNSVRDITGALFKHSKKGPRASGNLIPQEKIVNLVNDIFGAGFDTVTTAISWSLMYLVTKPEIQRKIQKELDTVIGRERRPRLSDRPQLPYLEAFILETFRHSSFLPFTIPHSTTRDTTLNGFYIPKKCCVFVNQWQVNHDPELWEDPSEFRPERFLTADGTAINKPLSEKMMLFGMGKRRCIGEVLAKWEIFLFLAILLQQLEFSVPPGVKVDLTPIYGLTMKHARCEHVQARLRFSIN

`COc1ccc(F)c(-n2ncc3c2COC[C@H]3NC(=O)c2ncn3c2CCCC3)c1Cl` (single isomer, unassigned) [Ex-9] gave a CC50 [1] of 3.65 ± 0.1 µM, an IC50 (CYP1A2) of over 30 µM and an IC50 (CYP2B6) of over 30 µM. The IC50 (CYP2D6) was over 30 µM and the IC50 (CYP2E1) was over 30 µM.
